The source of these data is patent US20130143881A1, “Hydrated Crystalline Forms of N-[3-fluoro-4-(oxy)phenyl]-N'-(4-fluorophenyl)cyclopropane-1,1-dicarboxamide” (Exelixis, Inc., priority 2010, published 2013).

A short description of this series: Gravimetric vapor sorption (GVS) study. Format: physicochemical. Particulars: 25° C. and 90 percent humidity. On the procedure:
A gravimetric vapor sorption (GVS) study was run using a standard procedure. Samples were run on a dynamic vapor sorption analyzer (Surface Measurement Systems) running DVSCFR software. Sample sizes were typically 10 mg. A moisture adsorption desorption isotherm was performed as outlined below. The standard isotherm experiment, performed at 25° C., is a two-cycle run, starting at 40 percent RH, increasing humidity to 90 percent RH, decreasing humidity to 0 percent RH, increasing humidity again to 90 percent RH, and finally decreasing humidity to 0 percent RH in 10 percent RH intervals.

SMILES strings stand for the structures.

For `COc1cc2c(Oc3ccc(NC(=O)C4(C(=O)Nc5ccc(F)cc5)CC4)cc3F)ccnc2cc1OCCCN1CCOCC1` [crystalline Compound (I), N-[3-fluoro-4-({6-(methyloxy)-7-[(3-morpholin-4-ylpropyl)oxy]quinolin-4-yl}oxy)phenyl]-N′-(4-fluorophenyl)cyclopropane-1,1-dicarboxamide crystalline hydrate], the “weight gain (GVS moisture sorption)” value is 2.5%.
